According to patent US10202349B2, “Asymmetric bis-acridines with antitumour activity and their uses” (POLITECHNIKA GDAŃSKA, priority 2015, dated 2019):
Values joined by “and” are separate entries in the source; they are usually repeats but may differ in a detail not shown here. Equal values may be shown once.

Assays:
H 460 = test: Anti-neoplasmic activity against xenograft in hairless mice; format: in vivo
Procedure, shortened: (§1)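 s.c. xenograft, 5×10^6 cells/mouse, female hairless mice, 5 wk. Start Rx at ~100 or 200 mm^3; 6–8 per test group. i.v. (or i.p.) 2×/wk ×4 wk, 3 doses. Readout: tumour volume, TGI %.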

DU 145 = test: as above; format: in vivo
Procedure, shortened: as §1

H T29 = test: as above; format: in vivo; details: series 3, i.v., total 24 mg/kg, day 20
Procedure, shortened: (§2)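 TGI calculated as 100−(ΔVT/ΔVC×100), using mean volume change from therapy start in treated versus control mice. Xenografts: s.c. 5×10^6 cells, female Crl:Nu-Foxn1nu mice aged 5 weeks. Compounds dosed i.v. twice weekly for 4 weeks at three doses; tumours measured twice weekly.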

Mia Pa Ca 2 = test: as above; format: in vivo
Procedure, shortened: as §2

AsPC-1 = test: Cytotoxic activity in vitro, SRB; format: cell-based, human
Procedure, shortened: (§3)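 Human tumour cells are exposed to the bis-acridines, and growth is then quantified by sulforhodamine B staining as recommended by the NCI. The EC50 values derive from comparison with control cells and mark half-maximal inhibition of proliferation.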

MCF-7 = test: Cytotoxic activity in vitro, SRB; format: cell-based, human
Procedure, shortened: as §3

MiaPaCa-2 = test: Cytotoxic activity in vitro, SRB; format: cell-based, human
Procedure, shortened: as §3

HT-29 = test: Cytotoxic activity in vitro, SRB; format: cell-based, human
Procedure, shortened: as §3

H-460 = test: Cytotoxic activity in vitro, SRB; format: cell-based, human
Procedure, shortened: as §3

HCT-116 = test: Cytotoxic activity in vitro, SRB; format: cell-based, human
Procedure, shortened: as §3

DU-145 = test: Cytotoxic activity in vitro, SRB; format: cell-based, human
Procedure, shortened: as §3

PC-3 = test: Cytotoxic activity in vitro, SRB; format: cell-based, human
Procedure, shortened: as §3

MDA-MB-231 = test: Cytotoxic activity in vitro, SRB; format: cell-based, human
Procedure, shortened: as §3

UM-UC-3 = test: Cytotoxic activity in vitro, SRB; format: cell-based, human
Procedure, shortened: as §3

PANC-1 = test: Cytotoxic activity in vitro, SRB; format: cell-based, human
Procedure, shortened: as §3

MDA MB 231 = test: Anti-neoplasmic activity against xenograft in hairless mice; format: in vivo; details: series 19, i.v.
Procedure, shortened: as §2

PANC 1 = test: as above; format: in vivo
Procedure, shortened: as §1

UM UC 3 = test: as above; format: in vivo; details: series 11, i.v., day 23
Procedure, shortened: as §2

BxPC-3 = test: Cytotoxic activity in vitro, SRB; format: cell-based, human
Procedure, shortened: as §3

HCT 116 = test: Anti-neoplasmic activity against xenograft in hairless mice; format: in vivo
Procedure, shortened: as §2

Capan-2 = test: Cytotoxic activity in vitro, SRB; format: cell-based, human
Procedure, shortened: as §3

BXPC 3 = test: Anti-neoplasmic activity against xenograft in hairless mice; format: in vivo
Procedure, shortened: as §2

AsPC 1 = test: as above; format: in vivo
Procedure, shortened: as §2

PC 3 = test: as above; format: in vivo; details: single 1 mg/kg, total 8 mg/kg, day 39
Procedure, shortened: as §1

| SMILES | EC50 (AsPC-1) | EC50 (MCF-7) | EC50 (MiaPaCa-2) | EC50 (HT-29) | EC50 (H-460) | EC50 (HCT-116) | EC50 (DU-145) | EC50 (PC-3) | EC50 (MDA-MB-231) | EC50 (UM-UC-3) | EC50 (PANC-1) | EC50 (BxPC-3) | EC50 (Capan-2) | further results |
| --- | --- | --- | --- | --- | --- | --- | --- | --- | --- | --- | --- | --- | --- | --- |
| O=c1c2cc(O)ccc2[nH]c2c([N+](=O)[O-])ccc(NCCCN3CCN(CCCNc4c5ccccc5nc5cccc([N+](=O)[O-])c45)CC3)c12 [C-1941] | 210 nM | 61 nM | 12 nM | 38 nM | 20 nM | 11 nM | 20 nM | 31 nM | 12 nM | 33 nM | 43 nM |  |  | TGI [%] [100 − (ΔVT/ΔVC × 100] (H 460; series 4, i.v., single 15 mg/kg, total 30 mg/kg, day 14): 24%; TGI [%] [100 − (ΔVT/ΔVC × 100] (DU 145; series 2, i.p., single 4 mg/kg, total 24 mg/kg, day 35): 52%; TGI [%] [100 − (ΔVT/ΔVC × 100] (H T29; single 3 mg/kg): 26%; TGI [%] [100 − (ΔVT/ΔVC × 100] (H T29; single 4 mg/kg): 35%; TGI [%] [100 − (ΔVT/ΔVC × 100] (Mia Pa Ca 2; series 12, i.p., single 4 mg/kg, total 32 mg/kg, day 26): 30% |
| Cc1ccc(NCCCN2CCN(CCCNc3c4ccccc4nc4cccc([N+](=O)[O-])c34)CC2)c2c(=O)c3ccccc3[nH]c12 [C-1973, 1-[3-(4-methyl-9(10H)-acridono-1-yl)aminopropyl]-4-3′-[(1′-nitroacridin-1-yl)-aminopropyl]piperazine] | 79 nM | 113 nM | 16 nM | 23 nM | 5 nM | 19 nM | 20 nM | 48 nM | 28 nM | 9.5 nM | 27 nM | 59 nM |  | TGI [%] [100 − (ΔVT/ΔVC × 100] (H 460; series 16, i.v., single 2 mg/kg, total 10 mg/kg, day 21): 42%; TGI [%] [100 − (ΔVT/ΔVC × 100] (DU 145; series 13, i.v., single 4 mg/kg, total 32 mg/kg, day 63): 90%; TGI [%] [100 − (ΔVT/ΔVC × 100] (DU 145; series 18, i.v., single 1 mg/kg, total 8 mg/kg, day 33): 51%; TGI [%] [100 − (ΔVT/ΔVC × 100] (MDA MB 231; single 1 mg/kg, total 8 mg/kg, day 50): 30%; TGI [%] [100 − (ΔVT/ΔVC × 100] (PANC 1; series 31, i.v., single 2 mg/kg, total 16 mg/kg, day 37): 75%; TGI [%] [100 − (ΔVT/ΔVC × 100] (UM UC 3; single 2 mg/kg, total 14 mg/kg): 46% |
| O=c1c2cc(O)ccc2n2cnc3ccc(NCCCN4CCN(CCCNc5c6ccccc6nc6cccc([N+](=O)[O-])c56)CC4)c1c32 [C-2027, 1-[3-(8-hydroxy-imidazo[4,5,1-de]-acridin-6-on-5-yl)aminopropyl]-4-[3′-(1′-nitroacridin-1-yl)-aminopropyl]piperazine] | 191 nM | 62 nM | 21 nM | 81 nM | 17 nM | 20 nM | 20 nM | 35 nM | 19 nM | 18 nM | 24 nM | 164 nM | 43 nM | TGI [%] [100 − (ΔVT/ΔVC × 100] (HCT 116; series 7, i.v., single 2.5 mg/kg, total 15 mg/kg, day 15): 15%; TGI [%] [100 − (ΔVT/ΔVC × 100] (PANC 1; series 10, i.v., single 2 mg/kg, total 10 mg/kg, day 45): 83%; TGI [%] [100 − (ΔVT/ΔVC × 100] (PANC 1; series 14, i.v., single 1 mg/kg, total 10 mg/kg, day 45): 23%; TGI [%] [100 − (ΔVT/ΔVC × 100] (PANC 1; series 30, i.v., single 1 mg/kg, total 8 mg/kg, day 32, *at least half of animals did not survive): 51* %; TGI [%] [100 − (ΔVT/ΔVC × 100] (Mia Pa Ca 2; series 12, i.v., single 2 mg/kg, total 16 mg/kg, day 26): 29%; TGI [%] [100 − (ΔVT/ΔVC × 100] (UM UC 3; single 4 mg/kg, total 28 mg/kg): 47% |
| CN(CCCNc1c2ccccc2nc2cccc([N+](=O)[O-])c12)CCCNc1ccc2ncn3c4ccccc4c(=O)c1c23 [C-2028, 9-{N-[(imidazo[4,5,1-de]-acridin-6-on-5-yl)aminopropyl]-N-methylaminopropylamino}-1′-nitroacridine] | 61 nM | 53 nM | 79 nM | 37 nM | 15 nM | 17 nM | 23 nM | 28 nM | 17 nM | 10 nM | 24 nM | 74 nM | 11 nM | TGI (BXPC 3; BXPC-3, significant activity): 64%; TGI [%] [100 − (ΔVT/ΔVC × 100] (BXPC 3; series 21, i.v., single 6 mg/kg, total 30 mg/kg, day 37): 64%; TGI [%] [100 − (ΔVT/ΔVC × 100] (BXPC 3; series 33, i.v., single 4 mg/kg, total 32 mg/kg, day 36): 43%; TGI [%] [100 − (ΔVT/ΔVC × 100] (H 460; series 16, i.v., single 1 mg/kg, total 5 mg/kg, day 28): 31%; TGI (AsPC 1; ASP-1, threshold activity): < 50%; TGI [%] [100 − (ΔVT/ΔVC × 100] (AsPC 1; series 23, i.v., single 6 mg/kg, total 48 mg/kg, day 46): 35%; TGI [%] [100 − (ΔVT/ΔVC × 100] (HCT 116; series 7, i.v., single 4 mg/kg, total 24 mg/kg, day 15): 34%; TGI [%] [100 − (ΔVT/ΔVC × 100] (PC 3; series 12, i.p.): 30%; TGI [%] [100 − (ΔVT/ΔVC × 100] (DU 145; series 13, i.v., single 4 mg/kg, total 32 mg/kg, day 40): 46%; TGI [%] [100 − (ΔVT/ΔVC × 100] (MDA MB 231; single 2 mg/kg, total 16 mg/kg, day 25): 44%; TGI (PANC 1; PANC-1 cancer, three consecutive experimental runs): 71% and 90% and 82%; TGI [%] [100 − (ΔVT/ΔVC × 100] (PANC 1; series 10, i.v., single 1 mg/kg, total 10 mg/kg, day 31): 71%; TGI [%] [100 − (ΔVT/ΔVC × 100] (PANC 1; series 14, i.v., single 4 mg/kg, total 36 mg/kg, day 45): 90%; TGI [%] [100 − (ΔVT/ΔVC × 100] (PANC 1; series 29, i.v., single 4 mg/kg, total 20 mg/kg, day 36): 59%; TGI [%] [100 − (ΔVT/ΔVC × 100] (PANC 1; series 32, i.v, single 2 mg/kg, total 16 mg/kg, day 40): 82%; TGI (Mia Pa Ca 2; MiaPa Ca2, threshold activity): < 50%; TGI [%] [100 − (ΔVT/ΔVC × 100] (Mia Pa Ca 2; series 12, i.v., single 6 mg/kg, total 42 mg/kg, day 36): 52%; TGI [%] [100 − (ΔVT/ΔVC × 100] (Mia Pa Ca 2; series 28, i.v., single 2 mg/kg, total 8 mg/kg, day 11, *at least half of animals did not survive): 68* %; TGI [%] [100 − (ΔVT/ΔVC × 100] (UM UC 3; single 6 mg/kg, total 42 mg/kg): 54% |
| O=c1c2ccccc2[nH]c2c([N+](=O)[O-])ccc(NCCCN3CCN(CCCNc4c5ccccc5nc5cccc([N+](=O)[O-])c45)CC3)c12 [C-2031, 1-[3-(4-nitro-9(10H)-acridono-1-yl)aminopropyl]-4-[3′-(1′-nitroacridin-1-yl)-aminopropyl]piperazine] | 78 nM | 77 nM | 28 nM |  | 9 nM | 20 nM | 11 nM | 26 nM | 28 nM | 17 nM | 56 nM |  |  | TGI [%] [100 − (ΔVT/ΔVC × 100] (H 460; series 6, i.v., single 8 mg/kg, total 48 mg/kg, day 23): 60%; TGI [%] [100 − (ΔVT/ΔVC × 100] (HCT 116; series 8, i.v., single 6 mg/kg, total 18 mg/kg, day 14, *at least half of animals did not survive): 52* %; TGI [%] [100 − (ΔVT/ΔVC × 100] (HCT 116; series 9, i.v., single 3 mg/kg, total 24 mg/kg, day 30): 34%; TGI [%] [100 − (ΔVT/ΔVC × 100] (PC 3; series 15, i.v.): 30%; TGI [%] [100 − (ΔVT/ΔVC × 100] (DU 145; series 13, i.v., single 4 mg/kg, total 32 mg/kg, day 35): 77%; TGI [%] [100 − (ΔVT/ΔVC × 100] (DU 145; series 18, i.p., single 1 mg/kg, total 8 mg/kg, day 64): 81%; TGI [%] [100 − (ΔVT/ΔVC × 100] (PANC 1; series 10, i.v., single 3 mg/kg, total 30 mg/kg, day 45): 72%; TGI [%] [100 − (ΔVT/ΔVC × 100] (PANC 1; series 14, i.v., single 1 mg/kg, total 10 mg/kg, day 37): 27% |
